Measured values taken from patent US7160992B2, “Amino-modified polysaccharides and methods of generating and using same” (Yeda Research and Development Co., Ltd., priority 2003, dated 2007).

Key:
[1] = test system: HIV-1IIIB wild type; test: Inhibition of HIV-1IIIB wild type in MT2 or cMAGI cells; assay type: cell-based; conditions: HIV-1IIIB wt; mean and standard deviation of three separate experiments; read-out: EC50, Wild-type
Description: The cMAGI assay is based on the ability of HIV-1 TAT to transactivate the expression of an integrated β-galactosidase reporter gene driven by the HIV-LTR [Chackerian, B. et al., 1997. J Virol. 71: 3932–3939; Collins, K. B. et al., 2000. Nat. Med. 6: 475–479]. The β-galactosidase reporter has been modified to remain localized in the nucleus where it can be detected with the X-gal substrate as an intense nuclear stain within a few days of infection. The X-gal substrate used was 5-bromo-4-chloro-3-indoyl-beta-D-galactopyranoside. HIV1IIIB was propagated by subculture in MT2 as described previously [Litovchick (2001) Supra]. Aliquots of cell-free culture supernatants were used as viral inoculum. […] The cytopathic effects of the viral infection of MT2 cells were analyzed by microscopic assessment of syncytium formation. These latter data were obtained by analysis of duplicate samples by two independent observers. HIV-1 infection of cMAGI cells was determined by counting the number of HIV-1 infected cells (stained blue).

[2] = test system: HIV-1 isolates; test: Inhibition of HIV-1 infection (cMAGI reporter cells, MT2 syncytium formation); assay type: cell-based; conditions: up to 100 μM
Description: Aliquots of cell-free culture supernatants were used as viral inoculum. […] Cytotoxicity determinations were carried out in MT2 and H9 cells by trypan blue exclusion assay.
Viral inhibition was determined by incubating cMAGI HIV-1 reporter cells with 0.2–0.5 multiplicity of infection of HIV-1IIIB for 4 days at 37° C. in the presence or absence of various concentration of AACs, prior to counting the number of HIV-1 infected cells (stained blue). The cytopathic effects of the viral infection of MT2 cells were also analyzed by microscopic assessment of syncytium formation. These latter data were obtained by analysis of duplicate samples by two independent observers.

[3] = target: T1, CXCR4 (Homo sapiens, UniProt P61073); test: Inhibition of anti-CXCR4 mAb 12G5 binding to cells, flow cytometry; assay type: cell-based; conditions: for inhibition of 12G5 mAb binding to CXCR4 (in words): 20 μM aminoglycoside antibiotic
T1 construct: endogenous in cells; host or cells: PM1 cells and PBMC
Description: FIGS. 11a–d are graphs depicting the binding of AACs to CXCR4 in the presence of anti CXCR4 antibody (12G5). PM1 cells were incubated with PE-conjugated isotype control mAb, PE-anti CXCR4 conjugated mAb (12G5) alone, or in the presence of the indicated AACs for 30 min at 4° C. The cells were then washed twice with PBS and analyzed by flow cytometry. The MFI values are shown in parenthesis.
Interaction of AACs with CXCR4 was determined by flow cytometry (FACScan, Becton Dickinson) as described recently (Litovchick et al., 2001, supra). Briefly, 0.5×10^6 cells were washed in ice-cold PBS containing 0.1% sodium azide (wash buffer) and incubated at 4° C. with anti-CXCR4 mAb, 12G5 (PharMingen, San Diego, Calif.) conjugated to phycoerithrine (PE), in the absence or presence of different concentrations of the AACs. After 30 min of incubation, the cells were washed with ice-cold wash buffer and fixed in PBS containing 1% paraformaldehyde. Non-specific fluorescence was assessed by using isotype-matched control. For each sample 10,000 events were acquired. Data were analyzed and processed using CellQuest™ software (Becton Dickinson).

[4] = test system: RRE IIB; test: Fluorescence anisotropy of aminoglycoside binding to RRE IIB, fluorescein-Rev34-50 tracer (literature); set-up: species or system HIV-1
[5] = target: RRE IIB; conditions: fluorescein-Rev34-50 as fluorescent tracer; read-out: KD of aminoglycoside binding to RRE IIB; cited from earlier work
[6] = target: TAR RNA; test: Fluorescence anisotropy: RhdRev binding and AAC competition for TAR RNA; set-up: species or system HIV-1
[7] = target: RRE IIB RNA; test: Fluorescence anisotropy: RhdRev binding and AAC competition for RRE IIB RNA; set-up: species or system HIV-1
[8] = test system: MT-2 cells; test: Cellular uptake competition of AACs with NeoR6-FITC, flow cytometry; assay type: cell-based; conditions: 100 fold excess of non-labeled AAC
Description: Following 15 minutes of incubation at room temperature, the cells were washed twice with ice-cold PBS and fixed in PBS containing 1% paraformaldehyde. Fluorescence was analyzed using flow cytometry.
After 5 or 15 min of incubation at room temperature, the cells were washed twice with ice-cold PBS and fixed in PBS containing 1% paraformaldehyde. The fluorescence was then analyzed by flow cytometry (FACScan, Becton Dickinson Imunocytometry Systems, San Jose, Calif., USA). For each sample 10,000 events were acquired. Data were analyzed and processed.

T1 sequence (P61073 whole entry): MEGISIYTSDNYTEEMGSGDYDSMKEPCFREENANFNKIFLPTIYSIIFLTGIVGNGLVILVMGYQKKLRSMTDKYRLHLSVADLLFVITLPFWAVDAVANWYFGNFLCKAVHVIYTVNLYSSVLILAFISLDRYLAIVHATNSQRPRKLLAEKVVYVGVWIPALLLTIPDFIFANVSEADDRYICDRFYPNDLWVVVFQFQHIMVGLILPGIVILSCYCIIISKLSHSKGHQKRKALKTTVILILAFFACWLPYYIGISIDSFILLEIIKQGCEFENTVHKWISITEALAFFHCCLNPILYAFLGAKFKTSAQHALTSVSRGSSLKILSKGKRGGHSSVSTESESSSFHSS

## Nc1ccn([C@H]2CC[C@@H](CO)O2)c(=O)n1 [ddC, Dideoxycytosine, reference compound]
[1]
  EC50: 300 ± 100 nM

## NC[C@H]1O[C@H](O[C@H]2[C@H](O)[C@@H](O)[C@H](N)C[C@@H]2N)[C@H](N)[C@@H](O)[C@@H]1O [neamine, reference compound]
[2]
  antiviral activity (in words): did not reveal antiviral activity
[3]
  inhibition of 12G5 mAb binding to CXCR4 (in words): did not inhibit

## NC[C@@H]1O[C@H](O[C@H]2[C@@H](O)[C@H](O[C@@H]3[C@@H](O)[C@H](N)C[C@H](N)[C@H]3O[C@H]3O[C@H](CN)[C@@H](O)[C@H](O)[C@H]3N)O[C@@H]2CO)[C@H](N)[C@@H](O)[C@@H]1O [neomycin, neomycin B]
[4]; comparator NeoR1
  times weaker than NeoR1 binding to RRE IIB: 6
[4]; comparator NeoR2
  times weaker than NeoR2 binding to RRE IIB: 7
[4]; comparator NeoR6
  times weaker than NeoR6 binding to RRE IIB: ~550
[2]
  antiviral activity (in words): did not reveal antiviral activity
[3]
  inhibition of 12G5 mAb binding to CXCR4 (in words): did not inhibit
[5]
  Kd: 1180 nM

## NC[C@@H]1O[C@H](O[C@H]2[C@@H](O)[C@H](O[C@@H]3[C@@H](O)[C@H](N)C[C@H](N)[C@H]3O[C@H]3O[C@H](CO)[C@@H](O)[C@H](O)[C@H]3N)O[C@@H]2CO)[C@H](N)[C@@H](O)[C@@H]1O [paromomycin, reference compound]
[2]
  antiviral activity (in words): did not reveal antiviral activity
[3]
  inhibition of 12G5 mAb binding to CXCR4 (in words): did not inhibit

## argininamido-neomycin B conjugate [NeoR1]
[6]; competition of AACs with RhdRev (10 nM) for TAR RNA (20 nM) binding, 85 mM NaCl
  Kd: > 500 nM
[6]; competition of AACs with RhdRev for TAR RNA binding
  IC50: > 500 nM
[7]; competition of AACs with RhdRev (10 nM) for RRE IIB RNA (20 nM) binding, 85 mM NaCl
  Kd: 200 ± 5.9 nM
[7]; competition of AACs with RhdRev for RRE IIB RNA binding
  IC50: 353 ± 31.9 nM
[3]; 10 μM AAC, PM1 cells, 30 min at 4° C.
  reduction of 12G5 mAb binding to the cells: 50%
[3]; in comparison to NeoR6
  inhibition of mAb 12G5 or SDF-1α binding to CXCR4, % of the NeoR6 activity: 55%
[8]
  competition with NeoR6-FITC uptake (in words): did not compete

## gentamicin
[2]
  antiviral activity (in words): did not reveal antiviral activity
